Conditions: Gas, Spherical cavity resonance method

C=C(F)C(F)(F)F [2,3,3,3-tetrafluoro-1-propene]
Conditions	speed of sound [m/s]
278.15 K, 25.44 kPa	148.09
278.15 K, 50.62 kPa	147.25
278.15 K, 75.68 kPa	146.39
278.15 K, 101 kPa	145.51
278.15 K, 201.3 kPa	141.89
278.15 K, 300.48 kPa	138.02
293.15 K, 25.29 kPa	151.93
293.15 K, 50.99 kPa	151.19
293.15 K, 75.57 kPa	150.47
293.15 K, 101.23 kPa	149.72
293.15 K, 201.08 kPa	146.67
293.15 K, 292.42 kPa	143.72
293.15 K, 401.24 kPa	139.99
308.15 K, 25.26 kPa	155.68
308.15 K, 50.39 kPa	155.05
308.15 K, 75.5 kPa	154.42
308.15 K, 100.64 kPa	153.79
308.15 K, 200.87 kPa	151.18
308.15 K, 300.85 kPa	148.47
308.15 K, 398.92 kPa	145.68
323.15 K, 25.34 kPa	159.31
323.15 K, 50.23 kPa	158.76
323.15 K, 75.47 kPa	158.2
323.15 K, 100.59 kPa	157.64
323.15 K, 200.87 kPa	155.39
323.15 K, 300.93 kPa	153.07
323.15 K, 401.34 kPa	150.66
338.15 K, 25.37 kPa	162.84
338.15 K, 50.45 kPa	162.36
338.15 K, 75.5 kPa	161.87
338.15 K, 100.77 kPa	161.37
338.15 K, 200.63 kPa	159.42
338.15 K, 301.18 kPa	157.41
338.15 K, 407.01 kPa	155.23
353.15 K, 25.67 kPa	166.32
353.15 K, 50.67 kPa	165.86
353.15 K, 75.38 kPa	165.44
353.15 K, 100.55 kPa	165.01
353.15 K, 200.64 kPa	163.29
353.15 K, 299.53 kPa	161.57
353.15 K, 401.3 kPa	159.76
